pEC50: −log10 of the molar value.
system: ZIKV; assay: ZIKV reporter virus-based antiviral screening on Huh7 cells; format: cell-based, Zika virus; settings: Huh7 cells infected with recombinant luciferase reporter ZIKV (MOI about 0.1), 48 hrs, luciferase signal; read-out: EC50
From the text: Protocol for ZIKV reporter virus-based antiviral screening on Huh7 cells:
• Human hepatocyte-derived carcinoma cell line (Huh7) 2. Reagents • ViviRen™ Live Cell Substrate (Promega, Cat #E6492) or Nano Glo assay system (Promega: N1130) • White opaque 96-well TC-treated microplates (Corning, Cat #3916) • 96-well Clear V-Bottom TC-treated Microplate (Corning, Cat #3894) • Complete cell culture media: DMEM (Gibco, Cat #10569) supplemented with 10% FBS (HyClone, Cat #SH30071.03IH25-40)+1% MEM Non-Essential Amino Acids Solution 100×(Gibco, Cat #11140050)+1% Penicillin-Streptomycin (10,000 U/mL) (Gibco, Cat #15140122). • Assay media: DMEM media (Gibco, Cat #31053028) supplemented with 2% FBS, 2% GlutaMAX™ Supplement (Gibco Cat #35050061), 1% Sodium Pyruvate solution (Gibco, Cat #11360070), 1% MEM Non-Essential Amino Acids Solution 100× and 1% Penicillin-Streptomycin (10,000 U/mL). • Trypsin-EDTA solution (Gibco, Cat #25200056) 3. Virus • Recombinant ZIKV strain with Renilla luciferase gene (strain FSS-Rlu) or Nano luciferase gene (Strain PRV-Nano, Dakar-Nano) 4. Instruments • BioTek Cytation 5 or other plate-readers for chemiluminescence detection model. • Eppendorf plate centrifuge • Plate shaker • Eppendorf multichannel pipettes Procedures Day 1: Preparation of Cells • Human hepatocyte-derived carcinoma cell line (Huh7) cells were detached from a T-175 flask by using a Trypsin-EDTA solution. The detached cells were suspended in complete culture media in a sterile 50-ml conical tube. • The 50-ml conical tube was centrifuged at 1200×rpm for 3 min at room temperature. • The cells were resuspended in assay media. The cell numbers were counted, and the cells diluted to a density of 3×10^5 cells/ml. • The cells were plated at 50 μl cells per well in White opaque 96-well plates (assay plates). Gently shake the plates to ensure cells to attach to the plate evenly. • The plated cells were incubated in a humidified incubator (37° C. with 5% CO2). Day 2: Infection • 1) Nine serial (2-fold or 3-fold) concentrated compounds were prepared using 90% DMSO solution and DMSO controls in a clear V-bottom 96-well plate (compound plate). • For example:
• 2) The reporter virus stock was diluted to a concentration of 3×10^4 FFU (FFU: focus-forming unit)/ml using the assay media. 200 μl diluted virus per well was aliquoted into a clear V-bottom 96-well plate (mixing plate). • 3) 1 μl above 400×concentrated compound dilutions was added from the compound plate to each well of the mixing plate. The plates were shaken on a plate shaker for 5 min. • 4) 50 μl compound-virus mixture was added into each well of the assay plates (the MOI is about 0.1). The plates were shaken gently by mixing the virus evenly. • An example of the format for assay plate:
• control. • 5) The plates were centrifuged at 1000 rpm for 15 s. • 6) The plates were incubated at 37° C. with 5% CO2 in a humidified incubator for 48 hrs. Day 4: Read Luciferase Signals • 7) The ViviRen™ Live Cell Substrate was diluted in assay media for 3000× folds. 25 μl of diluted substrates was added into each well of the assay plates. • For Nano-Glo assay system, 50 μl diluted substrates (50×fold diluted from the stock in assay buffer) were added. • 8) The plates were incubated at room temperature for 5 min. • 9) Optimally, cell viability is measured using the Promega Cell-titer Glo kit (only used when ZIKV-Rlu was used for infection). • 10) Luciferase signals were read using the Cytation 5 with gain value of 120-150. Data Analysis • a. The luciferase signals from DMSO-treated groups (un-treated controls) were set as 100%. The relative luciferase signals were obtained by normalizing the luciferase signals from each dilution-treated group to that of the controls. • b.

Question: With `COC(=O)N[C@H](C(=O)N1[C@@H](C)CC[C@H]1c1nc(Cl)c(-c2cc3c4c(c2)OCc2cc(-c5[nH]c([C@@H]6CC[C@H](C)N6C(=O)[C@@H](NC(=O)OC)C(C)(C)C(F)(F)F)nc5Cl)cc(c2-4)OC3)[nH]1)C(C)(C)C(F)(F)F` [Compound 34, dimethyl ((2S,2′S)-((2S,2′S,5S,5′S)-((5,10-dihydrochromeno[5,4,3-cde]chromene-2,7-diyl)bis(4-chloro-1H-imidazole-5,2-diyl))bis(2-methylpyrrolidine-5,1-diyl))bis(4,4,4-trifluoro-3,3-dimethyl-1-oxobutane-l,2-diyl))dicarbamate] as the compound, how does the pEC50 read?
Answer: 8.59

same assay, conditions: Zika virus, Huh-7, 48 h, Huh7 cells infected with recombinant luciferase reporter ZIKV (MOI about 0.1), luciferase signal

Question: With `CC(C)[C@H](NC(=O)C1CC1)C(=O)N1CCC[C@H]1c1nc(Cl)c(-c2cc3c4c(c2)OCc2cc(-c5[nH]c([C@@H]6CCCN6C(=O)[C@@H](NC(=O)C6CC6)C(C)C)nc5Cl)cc(c2-4)OC3)[nH]1` [Compound 25, N,N′-((2S,2′S)-((2S,2′S)-((5,10-dihydrochromeno[5,4,3-cde]chromene-2,7-diyl)bis(4-chloro-1H-imidazole-5,2-diyl))bis(pyrrolidine-2,1-diyl))bis(3-methyl-1-oxobutane-1,2-diyl))dicyclopropanecarboxamide] as the compound, how does the pEC50 read?
Answer: 7.66

Question: How did the pEC50 turn out when `COC(=O)N[C@H](C(=O)N1CCC[C@H]1c1nc(Cl)c(-c2cc3c4c(c2)OCc2cc(-c5[nH]c([C@@H]6CCCN6C(=O)[C@@H](NC(=O)OC)C(C)(C)C)nc5Cl)cc(c2-4)OC3)[nH]1)C(C)(C)C` [Compound 26, dimethyl ((2S,2′S)-((2S,2′S)-((5,10-dihydrochromeno[5,4,3-cde]chromene-2,7-diyl)bis(4-chloro-1H-imidazole-5,2-diyl))bis(pyrrolidine-2,1-diyl))bis(3,3-dimethyl-1-oxobutane-1,2-diyl))dicarbamate] was run?
Answer: 8.80

Question: How did the pEC50 turn out when `COC(=O)N[C@H](C(=O)N1CCC[C@H]1c1nc(Cl)c(-c2cc3c4c(c2)OCc2cc(-c5[nH]c([C@@H]6CCCN6C(=O)[C@@H](NC(=O)OC)C(C)(C)C(F)(F)F)nc5Cl)cc(c2-4)OC3)[nH]1)C(C)(C)C(F)(F)F` [Compound 27, dimethyl ((2S,2′S)-((2S,2′S)-((5,10-dihydrochromeno[5,4,3-cde]chromene-2,7-diyl)bis(4-chloro-1H-imidazole-5,2-diyl))bis(pyrrolidine-2,1-diyl))bis(4,4,4-trifluoro-3,3-dimethyl-1-oxobutane-1,2-diyl))dicarbamate] was run?
Answer: 8.59

Question: With `CC[C@H](C)[C@H](NC(=O)OC)C(=O)N1[C@@H](C)CC[C@H]1c1nc(Cl)c(-c2cc3c4c(c2)OCc2cc(-c5[nH]c([C@@H]6CC[C@H](C)N6C(=O)[C@@H](NC(=O)OC)[C@@H](C)CC)nc5Cl)cc(c2-4)OC3)[nH]1` [Compound 28, dimethyl ((2S,2′S,3S,3′S)-((2S,2′S,5S,5′S)-((5,10-dihydrochromeno[5,4,3-cde]chromene-2,7-diyl)bis(4-chloro-1H-imidazole-5,2-diyl))bis(2-methylpyrrolidine-5,1-diyl))bis(3-methyl-1-oxopentane-1,2-diyl))dicarbamate] as the compound, how does the pEC50 read?
Answer: 8.80

Question: `COC(=O)N[C@H](C(=O)N1[C@H](c2nc(Cl)c(-c3cc4c5c(c3)OCc3cc(-c6[nH]c([C@@H]7C[C@@H]8CCC[C@@H]8N7C(=O)[C@@H](NC(=O)OC)C(C)C)nc6Cl)cc(c3-5)OC4)[nH]2)C[C@@H]2CCC[C@@H]21)C(C)C` [Compound 29, dimethyl ((2S,2′S)-((2S,2′S,3aS,3a′S,6aS,6a′S)-((5,10-dihydrochromeno[5,4,3-cde]chromene-2,7-diyl)bis(4-chloro-1H-imidazole-5,2-diyl))bis(hexahydrocyclopenta[b]pyrrole-2,1(2H)-diyl))bis(3-methyl-1-oxobutane-1,2-diyl))dicarbamate] was tested. Which pEC50 did it give?
Answer: 8.74

Question: With `COC(=O)N[C@H](C(=O)N1[C@H](c2ncc(-c3cc4c5c(c3)OCc3cc(-c6[nH]c([C@@H]7C[C@@H]8CCC[C@@H]8N7C(=O)[C@@H](NC(=O)OC)C(C)C)nc6Cl)cc(c3-5)OC4)[nH]2)C[C@@H]2CCC[C@@H]21)C(C)C` [Compound 30, methyl ((S)-1-((2S,3aS,6aS)-2-(4-chloro-5-(7-(2-((2S,3aS,6aS)-1-((methoxycarbonyl)-L-valyl)octahydrocyclopenta[b]pyrrol-2-yl)-1H-imidazol-5-yl)-5,10-dihydrochromeno[5,4,3-cde]chromen-2-yl)-1H-imidazol-2-yl)hexahydrocyclopenta[b]pyrrol-1(2H)-yl)-3-methyl-1-oxobutan-2-yl)carbamate] as the compound, how does the pEC50 read?
Answer: 8.10

Question: `COC(=O)N[C@H](C(=O)N1[C@@H](C)CC[C@H]1c1nc(Cl)c(-c2cc3c4c(c2)OCc2cc(-c5[nH]c([C@@H]6CC[C@H](C)N6C(=O)[C@@H](NC(=O)OC)C(C)(C)C)nc5Cl)cc(c2-4)OC3)[nH]1)C(C)(C)C` [Compound 31, dimethyl ((2S,2′S)-((2S,2′S,5S,5′S)-((5,10-dihydrochromeno[5,4,3-cde]chromene-2,7-diyl)bis(4-chloro-1H-imidazole-5,2-diyl))bis(2-methylpyrrolidine-5,1-diyl))bis(3,3-dimethyl-1-oxobutane-1,2-diyl))dicarbamate] was tested. Which pEC50 did it give?
Answer: 8.96

Question: How did the pEC50 turn out when `CC[C@@H](C)[C@H](NC(=O)OC)C(=O)N1CCC[C@H]1c1nc(Cl)c(-c2cc3c4c(c2)OCc2cc(-c5[nH]c([C@@H]6CCCN6C(=O)[C@@H](NC(=O)OC)[C@H](C)CC)nc5Cl)cc(c2-4)OC3)[nH]1` [Compound 32, dimethyl ((2S,2′S,3R,3′R)-((2S,2′S)-((5,10-dihydrochromeno[5,4,3-cde]chromene-2,7-diyl)bis(4-chloro-1H-imidazole-5,2-diyl))bis(pyrrolidine-2,1-diyl))bis(3-methyl-1-oxopentane-1,2-diyl))dicarbamate] was run?
Answer: 8.96

Question: `CC[C@@H](C)[C@H](NC(=O)OC)C(=O)N1[C@@H](C)CC[C@H]1c1nc(Cl)c(-c2cc3c4c(c2)OCc2cc(-c5[nH]c([C@@H]6CC[C@H](C)N6C(=O)[C@@H](NC(=O)OC)[C@H](C)CC)nc5Cl)cc(c2-4)OC3)[nH]1` [Compound 33, dimethyl ((2S,2′S,3R,3′R)-((2S,2′S,5S,5′S)-((5,10-dihydrochromeno[5,4,3-cde]chromene-2,7-diyl)bis(4-chloro-1H-imidazole-5,2-diyl))bis(2-methylpyrrolidine-5,1-diyl))bis(3-methyl-1-oxopentane-1,2-diyl))dicarbamate] was tested. Which pEC50 did it give?
Answer: 9.05

Question: `COC(=O)N[C@H](C(=O)N1[C@H](c2nc(Cl)c(-c3cc4c5c(c3)OCc3cc(-c6[nH]c([C@@H]7C[C@@H]8CCC[C@@H]8N7C(=O)[C@@H](NC(=O)OC)C(C)(C)C(F)(F)F)nc6Cl)cc(c3-5)OC4)[nH]2)C[C@@H]2CCC[C@@H]21)C(C)(C)C(F)(F)F` [Compound 35, dimethyl ((2S,2′S)-((2S,2′S,3aS,3a′S,6aS,6a′S)-((5,10-dihydrochromeno[5,4,3-cde]chromene-2,7-diyl)bis(4-chloro-1H-imidazole-5,2-diyl))bis(hexahydrocyclopenta[b]pyrrole-2,1(2H)-diyl))bis(4,4,4-trifluoro-3,3-dimethyl-1-oxobutane-1,2-diyl))dicarbamate] was tested. Which pEC50 did it give?
Answer: 8.35

Question: With `CC[C@H](C)[C@H](NC(=O)OC)C(=O)N1[C@H](c2nc(Cl)c(-c3cc4c5c(c3)OCc3cc(-c6[nH]c([C@@H]7C[C@@H]8CCC[C@@H]8N7C(=O)[C@@H](NC(=O)OC)[C@@H](C)CC)nc6Cl)cc(c3-5)OC4)[nH]2)C[C@@H]2CCC[C@@H]21` [Compound 36, dimethyl ((2S,2′S,3S,3′S)-((2S,2′S,3aS,3a′S,6aS,6a′S)-((5,10-dihydrochromeno[5,4,3-cde]chromene-2,7-diyl)bis(4-chloro-1H-imidazole-5,2-diyl))bis(hexahydrocyclopenta[b]pyrrole-2,1(2H)-diyl))bis(3-methyl-1-oxopentane-1,2-diyl))dicarbamate] as the compound, how does the pEC50 read?
Answer: 8.37

From patent US12497408B2, “Tetracyclic compounds and methods for the treatment of Zika virus infection” (priority 2021, dated 2025)
